Experimental data as given in US20070027181A1, “Benzylisoquinoline derivative- or bisbenzylisoquinoline derivative-containing psychotropic agent, analgesic and/or antiphlogistic, and health food” (EDUCATION CENTER OF TRADITIONAL, priority 2004, published 2007).

What was measured:
Assay type in all cases: in vivo, Male ICR mice
mice [1] = assay: locomotor activity (ultromotivity) test, evaluation of sedative action
Method: (§1) In the following Examples, all extracts and drugs used were dissolved in physiological saline before use for i.p. administration and the dose was 0.1 ml of physiological saline per 10 g of mouse body weight in either case. All extracts and drugs were suspended in physiological saline containing 1% sodium carboxymethylcellulose before use for oral administration and the dose was 0.1 ml of 1% sodium carboxymethylcellulose-containing physiological saline suspension per 10 g of mouse body weight in either case. Male ICR mice (Japan SLC) having a body weight of 25 to 30 g were used in the tests below unless otherwise stated, and were fed in advance at a room temperature of 23±1° C. and a relative humidity of 55±5% in the environment of a cycle of 12-hour-light from 7 a.m. to 7 p.m. and 12-hour-dark from 7 p.m. to 7 a.m. for 3 to 5 days. The mice were allowed to have water and feed freely.
Twenty five mice were grouped into five groups each having five mice, to which 5 mg/kg of N-methylcoclaurine hydrochloride (treatment group 1-1: i.p. administration), 50 mg/kg of neferine hydrochloride (treatment group 1-2: oral administration, and treatment group 1-3: i.p. administration), 50 mg/kg of liensinine hydrochloride (treatment group 1-4: oral administration), or physiological saline (negative control group 1-1: i.p. administration) was administered. The ultromotivity of the mice was analyzed by using a locomotor activity monitoring system (NS-AS01, Neuroscience Inc.). The ultromotivity measurements were performed at an interval of 5 minutes for 60 minutes, and the ultromotivity was judged from the count at each measuring time.
Similar tests were conducted by i.p. administration of 25 mg/kg of N-norarmepavine (treatment group 1-5, n=6), 25 mg/kg of O,O-dimethylcoclaurine (treatment group 1-6, n=5), 10 mg and 25 mg/kg of armepavine (respectively, treatment group 1-7, n=6, and treatment group 1-8, n=6), 10 mg and 25 mg/kg of O-methylarmepavine (respectively, treatment group 1-9, n=6, and treatment group 1-10, n=6), and physiological saline (negative control group 1-2, n=5). The ultromotivity measurements were performed at an interval of five minutes for 60 minutes, and the ultromotivity was subjected to a significant difference test (Tukey's method) by using the counts at respective measuring times.
Tests were performed by using mice administered intraperitoneally with 25 mg/kg of neferine hydrochloride (treatment group 7-1, n=6), 25 mg/kg of liensinine hydrochloride (treatment group 7-2, n=6), and physiological saline (negative control group, n=6) as well as 5 mg/kg of diazepam (positive control group, n=6) and a rotarod equipment (Ugo Basile, Italy) and a locomotor activity monitoring system (NS-AS01, Neuroscience Inc.). The rotarod test was performed by placing a mouse on a rod having a diameter of 4 cm rotating at a speed of 8 rpm 15 minutes after drug administration and observing whether the mouse can stay on the rod without falling for three minutes. The individuals that had fallen from the rotating rod in the period of 3 minutes were judged that they are with motor coordination disorder. […] In addition, the ultromotivity measurements were performed at an interval of five minutes for 60 minutes, and the ultromotivity results were subjected to a significant difference test (Tukey's method) by using the counts at respective measuring times.

mice [2] = assay: acetic acid-induced writhing test
Method: as §1
An acetic acid-induced writhing test is a method wherein analgesic action of a compound is determined utilizing this. The number of this writhing is compared between a physiological saline-administered control group and a test drug-administered group, and suppression of the number of writhing by the test drug is investigated thereby assessing its analgesic action.
Seven to ten mice per group were used. Neferine hydrochloride was subcutaneously administered to mice at their back at a dose of 5 mg/kg, 10 mg/kg, 25 mg/kg, 50 mg/kg or 100 mg/kg and, after 15 minutes, a 0.6% by weight solution of acetic acid in water was intraperitoneally administered at 0.1 mL/10 g body weight. The number of writhing was counted every ten minutes for 30 minutes from immediately after acetic acid administration (0 to 10 min, 10 to 20 min, 20 to 30 min). In addition, the total number of writhing for 30 minutes from immediately after acetic acid administration was also obtained. Regarding the resulting measurements, a significant difference test was performed by a Dunnet multiple comparison test method.
According to the same manner as in acetic acid-induced writhing test-1 except that acetic acid was intraperitoneally administered 30 minutes after subcutaneous administration of neferine in the aforementioned acetic acid-induced writhing test-1, an acetic acid-induced writhing test was performed. However, the dose of neferine was only 50 mg/kg.
According to the same manner as in the acetic acid-induced writhing test-1 except that acetic acid was intraperitoneally administered 30 minutes after oral administration of neferine in the aforementioned acetic acid-induced writhing test-1, an acetic acid-induced writhing test was performed. However, five to six mice per group were used. The dose of neferine was 10 mg/kg and 50 mg/kg. Further, aspirin was used as a positive control drug. The dose of aspirin was 50 mg/kg.
(§2) According to the same manner as in acetic acid-induced writhing test-1 except that armepavine was used in place of neferine in the aforementioned acetic acid-induced writhing test-1, an acetic acid-induced writhing test was performed. However, the dose of armepavine was 5 mg/kg and 10 mg/kg.
as §2, with “O-methylarmepavine” for “armepavine”

mice [3] = assay: histamine-induced paw edema test; conditions: 10 mg/kg i.p. 15 minutes before histamine 10 μg; 12 minutes after histamine
Method: as §1
Six mice per group were used. […] The thickness of the right hind paw was measured immediately before histamine administration and 12 minutes after histamine administration. The thickness immediately before administration was subtracted from the thickness of the paw after histamine administration, and this was adopted as a thickness of paw edema. As apparent from TABLE 18, paw edema due to histamine was suppressed by neferine. […]

mice [4] = assay: formalin pad test; conditions: 10 mg/kg i.p. 15 minutes before formalin
Method: as §1
A formalin pad test is a method in which, when formalin is subcutaneously administered to a pad of a mouse, the mouse causes licking, and analgesic action of a test drug is determined by utilizing this. Suppression of licking in a test drug-administered group was investigated relative to a physiological saline-administered control group, and analgestic action was evaluated.
Six mice per group were used. Neferine hydrochloride was intraperitoneally administered at a dose of 25 mg/kg, 50 mg/kg or 100 mg/kg and, after fifteen minutes, 20 μl of a 0.2% by weight formalin aqueous solution was subcutaneously administered to a right hind paw pad. After formalin administration, licking was regarded as a provisional pain reaction, and a licking sustaining time in a first phase from immediately after formalin administration to five minutes after formalin administration and in a second phase from 15 minutes to 30 minutes after formalin administration was measured. Regarding the resulting measurements, a significant difference test was performed by a Dunnet multiple comparison test method.
According to the same manner as in Example 13 except that 10 mg/kg of O-methylarmepavine was intraperitoneally administered in place of neferine, a formalin pad test was performed.

mice [5] = assay: rotarod test (motor coordination); conditions: 5 mg/kg i.p., n=6, 15 minutes after administration, 8 rpm, three minutes
Method: as §1
Tests were performed by using mice administered intraperitoneally with 25 mg/kg of neferine hydrochloride (treatment group 7-1, n=6), 25 mg/kg of liensinine hydrochloride (treatment group 7-2, n=6), and physiological saline (negative control group, n=6) as well as 5 mg/kg of diazepam (positive control group, n=6) and a rotarod equipment (Ugo Basile, Italy) and a locomotor activity monitoring system (NS-AS01, Neuroscience Inc.). […]

[6] = 5 mg/kg s.c. 15 minutes before acetic acid
[7] = 10 mg/kg s.c. 15 minutes before acetic acid
[8] = 50 mg/kg oral 30 minutes before acetic acid

Row | Structure (SMILES) | Number of writhing 0-10 min. (mice [2]; [6]) | Number of writhing 0-30 min. (mice [2]; [6]) | Number of writhing 10-20 min. (mice [2]; [6]) | Number of writhing 20-30 min. (mice [2]; [6]) | Number of writhing 0-10 min. (mice [2]; [7]) | Number of writhing 0-30 min. (mice [2]; [7]) | Number of writhing 10-20 min. (mice [2]; [7]) | Number of writhing 20-30 min. (mice [2]; [7]) | also measured
1 | COc1cc2c(cc1O)[C@@H](Cc1ccc(O)cc1)N(C)CC2 [N-methylcoclaurine] |  |  |  |  |  |  |  |  | sedative activity compared with neferine and liensinine (mice [1]; 5 mg/kg i.p. versus 50 mg/kg of the bisbenzylisoquinolines): extremely higher activity; Ultromotivity (count) 30 minutes (mice [1]; 5 mg/kg i.p.): 250 count; Ultromotivity (count) 60 minutes (mice [1]; 5 mg/kg i.p.): 250 count
2 | COc1ccc(C[C@@H]2c3cc(OC)c(OC)cc3CCN2C)cc1 [O-methylarmepavine] | 11.6 ± 1.41 | 30.2 ± 1.90 | 11.2 ± 2.25 | 7.4 ± 1.52 | 5.9 ± 1.73 | 13.3 ± 1.69 | 4.3 ± 1.19 | 3.1 ± 0.58 | Thickness of paw edema (mm) (mice [3]): 0.37 ± 0.06 mm; Licking sustaining time (second) First phase (mice [4]; 0 to 5 minutes): 70.9 ± 11.24 s; Licking sustaining time (second) Second phase (mice [4]; 15 to 30 minutes): 126.9 ± 18.4 s
3 | COc1cc2c(cc1OC)C(Cc1ccc(O)cc1)N(C)CC2 (centres unmarked) [armepavine] | 19.0 ± 3.21 | 41.7 ± 5.24 | 14.7 ± 1.92 | 9.4 ± 1.81 | 8.6 ± 1.41 | 24.6 ± 4.23 | 10.7 ± 2.24 | 5.3 ± 1.39 | 
4 | CC(=O)Oc1ccccc1C(=O)O [aspirin, reference compound] |  |  |  |  |  |  |  |  | Number of writhing 0-10 min. (mice [2]; [8]): 10.8 ± 3.41; Number of writhing 0-30 min. (mice [2]; [8]): 3.34 ± 5.35; Number of writhing 10-20 min. (mice [2]; [8]): 15.2 ± 1.83; Number of writhing 20-30 min. (mice [2]; [8]): 7.4 ± 1.23
5 | CN1C(=O)CN=C(c2ccccc2)c2cc(Cl)ccc21 [diazepam] |  |  |  |  |  |  |  |  | Number of individuals fallen (mice [5]): 5
6 | COc1cc2c(cc1OC)[C@@H](Cc1ccc(O)c(Oc3cc4c(cc3OC)CCN(C)[C@@H]4Cc3ccc(O)cc3)c1)N(C)CC2 [liensinine] |  |  |  |  |  |  |  |  | Ultromotivity (count) 30 minutes (mice [1]; 50 mg/kg oral): 600 count; Ultromotivity (count) 60 minutes (mice [1]; 50 mg/kg oral): 800 count
